Data reported in patent US20130245116A1, “COMPOSITIONS AND METHODS FOR THE DISRUPTION OF MYCOBACTERIUM BIOFILM” (priority 2011, published 2013).

System: M. smegmatis mc^2155 biofilm
Assay: Assay for M. smegmatis biofilm inhibition (pellicle formation in M63 medium)
Assay type: cell-based
Method: Two ml of 7H9/ADC culture medium was inoculated with […] of a starter culture of M. smegmatis mc^2155 in 40% glycerol and incubated at 37° C. without shaking for 16-24 hr. This culture was transferred into 10 ml of GAS medium and incubated in the incubator/shaker at 37° C. to an absorbance at 650 nm of <1.5, diluted to an absorbance of 0.02-0.03 in M63 culture medium. Then aliquots of 2.0 ml of this inoculated M63 medium were placed in sterile 1.5×10-cm glass tubes and the purified compounds to be tested were added. The test tubes were incubated in the heat block at 37° C. for 3 to 7 days. Pellicles began to form at the air-liquid interface of control culture on day-2, the pellicle thickened and cells began climbing up the surface of the glass. Such pellicles are recognized as biofilm. In the biofilm inhibition assay, the purified compounds dissolved in CM (2:1) were added at zero time and the development of biofilm was recorded on day-3 and -4.
In the biofilm inhibition assay, control culture began developing a smooth surface growth after two days and the cells began to climb up the wall of the tube. The surface growth continued and thickened over days-4 and -5. There was no observable submerged growth in the M63 medium over this period. […] After this period, rough surface pellicles began to appear along with some submerged growth (planktonic growth).

Row | Substance | biological activity in M. smegmatis biofilm inhibition assay (concentration not given) | concentration for complete inhibition of M. smegmatis biofilm formation [µg/mL]
1 | Trehalose monomycolate [TMM, reference compound] | not active | 
2 | C16:3-fatty acyl-/C25-mycocerosyl-phthiotriol diester |  | 12.5
